In assay [1] the test system is rats with permanent occlusion of the middle cerebral artery. The note with it: systemic administration, 10 mg/kg 1 hour post ischemia; compared with vehicle controls; cited from earlier work.
The test system of assay [2] is TNF-α production by human monocytes. In words: Assay for inhibition of TNF-α production by human monocytes. It counts as cell-based. The note with it: 100 ng/ml LPS, 16 hours, ELISA, read-out: IC50 Against TNF-α. How it is done:
Assay for inhibition of TNF-α production by human monocytes
Monocytes were prepared by centrifugal counterflow elutriation from PBMC obtained from leukophoresis of normal volunteers (leukopaks) at the Phoresis laboratory located at Duke University Hospital, Durham, N.C., United States of America. PBMC from leukopaks were diluted in sterile isotonic saline/10 mM HEPES (N-[2-Hydroxyethyl]piperazine-N′-[2-ethanesulfonic acid]), the name of a buffer used in biological and protein chemistry) and placed into 50 ml conical polypropylene tubes in 30 ml aliquots. Each aliquot of diluted PBMC is underlaid with 20-25 ml of sterile lymphocyte separation medium (LSM; Organon-Technika, Durham, N.C., United States of America). The tubes were centrifuged at 400× gravity for 40 minutes at room temperature. The mononuclear cells at the interface were resuspended in phosphate buffered saline (PBS) and then separated, using a Beckman elutriator, into lymphocytes and monocytes. Yields of 10^9 monocytes with greater than 90% purity were routinely obtained.
Purified monocytes prepared as described above were suspended at 4×10^6 cells/ml in complete medium. Complete medium is defined as follows: RPMI-1640 supplemented with 100 U/ml penicillin; 100 μg/ml streptomycin; 2 mM L-glutamine; 1 mM Na pyruvate; 1% MEM non-essential amino acids; 25 mM HEPES (all from GIBCO, Gaithersburg, Md., United States of America); and 5% pooled, heat-inactivated (56° C., 30 minutes) human serum from type AB blood (Pel-Freez, Brown Deer, Wis., United States of America). To each well of a 48-well flat bottomed tissue culture plate was added 0.125 ml of cell suspension. Test materials (diluted in complete medium at 2× the desired final concentration) were added in […] to each well. Control wells received 250 μl of complete medium. All samples were tested at a minimum of 4 concentrations in the presence or absence of 100 ng/ml LPS (S. typhosa; Sigma, St. Louis, Mo., United States of America; 125 μl of 4× desired final concentration added) and incubated at 37° C. in humidified 5% CO2 for 16 hours. At this time, culture supernatants were aspirated off and the unattached cells and cell debris removed by a 2 minute spin in a microcentrifuge at 10,000× gravity. The release of TNF-α was determined in the cell-free supernatants using an ELISA capture assay.

The test system of assay [3] is nitric oxide production by murine macrophage cell line J774.1. Kind of assay: Nitric oxide production by a murine macrophage cell line (J774.1), nitrate/nitrite by Griess reagent. It counts as cell-based. The note with it: FIG. 2. How it is done:
(§1) Assay for inhibition of TNF-α or nitric oxide (NO) by a murine macrophage cell line
(§2) Murine macrophage cell line J774.1 cells were maintained by culture at 37° C. in 5% humidified CO2 in media that was […] (DMEM) supplemented with 100 U/ml penicillin; 100 μg/ml streptomycin; 2 mM L-glutamine; 1 mM Na pyruvate; 1% MEM non-essential amino acids; 25 mM HEPES (all from GIBCO, Gaithersburg, Md., United States of America); and 10% pooled, heat-inactivated (56° C., 30 minutes) fetal bovine serum (FBS; GIBCO). For assays of TNF-α and nitric oxide production, cells were cultured at 1×10^5 cells/well in 96-well tissue culture plates. Test compound was prepared as a stock solution in DMSO and added to each well to give the desired final concentration. DMSO was added to control wells to serve as a vehicle control. Each concentration of test material or vehicle control was tested in replicates of 4 wells. After a 1 hour exposure to test material, a stimulus (either SAK2 stimulatory oligonucleotide [10 μg] or LPS [10 ng/ml]+IFNγ[100 u/ml]) was added to each well, and the plates incubated for 48 hours at 37° C. in 5% humidified CO2. […] Content of nitrite/nitrate in J774.1 cell culture supernatants was expressed as μM.
(Griess reagent forms a coloured azo dye with nitrite.)

Assay [4] deals with TNF-α production by murine macrophage cell line J774.1. In words: Inhibition of TNF-α production by a murine macrophage cell line (J774.1). It counts as cell-based. The note with it: FIG. 1; read-out: IC50, production of TNF-α by cultured murine macrophage cell line. How it is done:
as §1, §2

The subject of a further assay is mRNA for GAPDH. In words: Housekeeping gene mRNA in normal human PBMC by RT-PCR: GAPDH. It counts as cell-based. The note with it: FIG. 6. How it is done:
(§3) The ability of LMP-420 to affect the expression of C-C chemokine receptors on normal human PBMC was tested as illustrated in FIG. 6. […] There was no effect on CCR4, the only other C-C chemokine receptor whose mRNA could be detected in these unstimulated human PBMC. Also, there was no effect on the mRNA for GAPDH which is used as a “housekeeping gene” to verify that equal amounts of mRNA are being reversed transcribed for the analysis. Thus, the ability of LMP-420 to inhibit the expression of CCR1 might contribute to antiinflammatory properties of LMP-420, as well as its ability to inhibit HIV-1 replication.

The test system of the next assay is mRNA encoding for CCR1. Kind of assay: Expression of C-C chemokine receptor mRNA in normal human PBMC by RT-PCR: CCR1. It counts as cell-based. The note with it: FIG. 6. How it is done:
as §3

A further assay has as its system CCR4 mRNA. Kind of assay: Expression of C-C chemokine receptor mRNA in normal human PBMC by RT-PCR: CCR4. It counts as cell-based. The note with it: unstimulated human PBMC, FIG. 6. How it is done:
as §3

The conditions of assay [5]: 400 mg 3 times daily, 6 months; placebo 26.8%, p=0.04; cited from earlier work.
For assay [6] the following is noted: cited from earlier work.
Assay [7] addresses T1, biologically-active TNF-α (Homo sapiens, UniProt P01375).
T1 construct: host or cells: serum of heart-failure patients
The note with it: heart failure patients; cited from earlier work.

The conditions of assay [8]: two weeks after a single infusion; cited from earlier work.

Bounds are passed on as bounds.

A word on the IC50: it is the midpoint of a concentration-inhibition curve.

T1 sequence (P01375 77-233 limits assumed): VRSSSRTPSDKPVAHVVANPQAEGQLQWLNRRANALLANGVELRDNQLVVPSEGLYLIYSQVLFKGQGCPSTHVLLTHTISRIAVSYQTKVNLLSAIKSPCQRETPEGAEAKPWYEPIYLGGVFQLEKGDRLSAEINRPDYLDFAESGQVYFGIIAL

For the molecule `C/C(=N\N=C(N)N)c1cc(NC(=O)CCCCCCCCC(=O)Nc2cc(/C(C)=N/N=C(N)N)cc(/C(C)=N/N=C(N)N)c2)cc(/C(C)=N/N=C(N)N)c1.Cl.Cl.Cl.Cl` [CNI-1493], the reduced infarct volume in assay [1] is on record as 80%.

For the molecule `Nc1nc(Cl)c2ncn(CCCCO)c2n1` [Comparison Compound 6], the IC50 in [2] was over 50000 nM.

In the case of `Nc1nc(Cl)c2ncn(CCCC(=O)O)c2n1` [Comparison Compound 13], in assay [2], the half-inhibitory concentration (IC50) was over 20000 nM.

On to `CCOC(=O)CCCn1cnc2c(Cl)nc(N)nc21` [Comparison Compound 14], for which, in [2], the IC50 is over 20000 nM.

In the case of `Nc1nc(Cl)c2ncn(CCCCCB(O)O)c2n1` [LMP-420, 2-amino-6-chloro-9-[(5-dihydroxyboryl)-pentyl] purine], the “effect on the production of nitric oxide as measured by the release of nitrate or nitrite” value in assay [3] is reported as “no effect”. The IC50 in [4] was about 1000 nM; in assay [2], 80 nM. Further, the “effect on the mRNA for GAPDH” value in the assay with mRNA for GAPDH was “no effect”. In the assay with mRNA encoding for CCR1, the “expression of mRNA encoding for CCR1” value is on record as “dose-dependent inhibition”. For the same molecule, the “effect on CCR4 mRNA” value in the assay with CCR4 mRNA is listed as “no effect”.

On to `CC(=O)CCCCn1c(=O)c2c(ncn2C)n(C)c1=O` [Pentoxifylline], for which, in assay [5], the “left ventricular ejection fraction (LVEF)” value is recorded as 38.7%.

ENBREL: the “patients who achieved the ARC20” value in [6] (12 weeks, placebo 13%) is 73%. Further, the “patients who met the PsARC” value in [6] (12 weeks, placebo 23%) is given as 87%. For the same molecule, the “patients who achieved a 75% improvement in the PASI” value in assay [6] (19 assessable patients per group, placebo 0, p=0.015) is 26%. Moreover, the “median target lesions (improvement)” value in assay [6] (placebo 0%) was 50%. For the same molecule, in assay [6] (placebo 9%), the “median PASI improvement” value is 46%. The “decrease in serum levels of biologically-active TNF-α” value in [7] is 85%.

For “REMICADE: humanized murine monoclonal antibody to TNF-α”, the “patient's psoriasis” value in [8] is “dramatically cleared up”.

Values taken from patent publication US20030022864A1, “9-[(5-dihydroxyboryl)-pentyl] purines, useful as an inhibitor of inflammatory cytokines” (priority 2001, published 2003).
